The text below walks through data of PubChem BioAssay (NCI).

“And” between values parts separate entries of the source, which are not always exact repeats. Identical values can stand only once.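 Five concentrations, 48 hours, 96-well plates. GI50 is the concentration that inhibits growth by half. TGI: total growth inhibition.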

Some test systems named below: HOP-62 NSCLC; OVCAR-3 ovarian; SK-MEL-28 melanoma; CAKI-1 renal; CCRF-CEM leukemia; MALME-3M melanoma; OVCAR-5 ovarian; UO-31 renal; SK-OV-3 ovarian; A549 NSCLC.
Common to all, as to experiment: NCI tumour cell line growth inhibition, 48 h

`COC(=O)C(Cc1ccccc1)NC(=O)C(CNC(=O)OCc1ccccc1)C(=O)OCc1ccccc1` (stereo not given): the GI50 with HOP-62 NSCLC is 18 µM and 94.1 µM; in the assay with SK-MEL-28 melanoma, > 100 µM and 20.8 µM; in the assay on CCRF-CEM leukemia, > 100 µM and 38.5 µM; with MALME-3M melanoma, > 100 µM and 44.4 µM. Besides, the TGI in the assay on HOP-62 NSCLC was 39.9 µM and > 100 µM; in the assay on OVCAR-3 ovarian, greater than 100 µM; in the assay on SK-MEL-28 melanoma, > 100 µM and 41.7 µM; in the assay with CAKI-1 renal, greater than 100 µM; in the assay on CCRF-CEM leukemia it was greater than 100 µM; in the assay on MALME-3M melanoma, greater than 100 µM. Further, the TGI in the assay with OVCAR-5 ovarian, with UO-31 renal and in the assay with SK-OV-3 ovarian was greater than 100 µM each time.
On to `C=CCOC(C)(C)C1=CCC(C)CC1` (stereo not given), for which the TGI with HOP-62 NSCLC, with OVCAR-3 ovarian, in the assay on A549 NSCLC, with SK-MEL-28 melanoma, in the assay on CAKI-1 renal and in the assay on MALME-3M melanoma was greater than 100 µM in each case. In addition, the TGI with OVCAR-5 ovarian, in the assay with UO-31 renal and with SK-OV-3 ovarian was greater than 100 µM throughout.
`O=c1[nH]nc(Nc2ccc(Cl)cc2)c2nnn(C3CCCCC3)c12`: the TGI in the assay on HOP-62 NSCLC is greater than 100 µM; in the assay on OVCAR-3 ovarian, greater than 100 µM; with A549 NSCLC, greater than 100 µM; in the assay with SK-MEL-28 melanoma, greater than 100 µM; with CAKI-1 renal, 51.8 µM; with CCRF-CEM leukemia it was greater than 100 µM. Also, the TGI with MALME-3M melanoma, in the assay with OVCAR-5 ovarian and with UO-31 renal was greater than 100 µM each time.
`COC(=O)c1c(O)ccc2c1c1c(n2Cc2ccc(OC)cc2)C(=O)c2ccccc2C1`: the TGI was greater than 100 µM in the assay on HOP-62 NSCLC; greater than 100 µM in the assay with OVCAR-3 ovarian; greater than 100 µM in the assay on A549 NSCLC; greater than 100 µM in the assay with SK-MEL-28 melanoma; 74.1 µM with CAKI-1 renal; 89.4 µM with CCRF-CEM leukemia. In addition, the TGI in the assay on MALME-3M melanoma, with UO-31 renal and in the assay with SK-OV-3 ovarian was greater than 100 µM in each case.
In the case of `O=C(Nc1ccc(-n2cc(-c3ccncc3)c(-c3ccc(O)c(Cl)c3)n2)cc1)Nc1cc(C(F)(F)F)cc(C(F)(F)F)c1`, the GI50 with HOP-62 NSCLC was 5.02 µM; with OVCAR-3 ovarian, 2.73 µM; in the assay with A549 NSCLC, 4.06 µM; with SK-MEL-28 melanoma, 4.48 µM; in the assay on CAKI-1 renal, 3.34 µM; in the assay with CCRF-CEM leukemia it was 4.06 µM. Moreover, the results for the GI50 in the assay on MALME-3M melanoma, in the assay on OVCAR-5 ovarian and in the assay with UO-31 renal were 2.59 µM, 3.17 µM and 1.94 µM, respectively. Moreover, the TGI came out at 17.3 µM with HOP-62 NSCLC; 6.76 µM with OVCAR-3 ovarian; 15.5 µM in the assay with A549 NSCLC; 16.5 µM in the assay on SK-MEL-28 melanoma; 12.8 µM in the assay on CAKI-1 renal; 19.2 µM in the assay with CCRF-CEM leukemia. The TGI in the assay on MALME-3M melanoma was 13.9 µM; with OVCAR-5 ovarian, 12.7 µM; in the assay on UO-31 renal, 12.6 µM.
As for `O=C(Nc1cccc2ccccc12)c1cc2ccccc2oc1=O`, the TGI in the assay with HOP-62 NSCLC is 49.4 µM; in the assay on OVCAR-3 ovarian it was greater than 100 µM; with A549 NSCLC, greater than 100 µM; in the assay on SK-MEL-28 melanoma, greater than 100 µM; in the assay with CAKI-1 renal it was greater than 100 µM; in the assay with CCRF-CEM leukemia, greater than 100 µM. Besides, the TGI in the assay on MALME-3M melanoma, in the assay with OVCAR-5 ovarian and in the assay with SK-OV-3 ovarian was greater than 100 µM each time.
As to `COc1cc2c(cc1O)C(Cc1ccc(OCc3ccccc3)c(OCc3ccccc3)c1)N(C(=O)NCCc1ccccc1)CC2` (stereo not given), the TGI with HOP-62 NSCLC, in the assay with OVCAR-3 ovarian, with A549 NSCLC, in the assay on CAKI-1 renal, in the assay on CCRF-CEM leukemia and in the assay on MALME-3M melanoma was greater than 100 µM in each case. The TGI in the assay on OVCAR-5 ovarian, in the assay on UO-31 renal and with SK-OV-3 ovarian was greater than 100 µM each time.
`CC(=O)O[C@H]1CC[C@@H](OC(C)=O)[C@H]2[C@H](O)[C@H](O)[C@@H]1n1c(=O)n(-c3ccccc3)c(=O)n12`: the TGI in the assay on HOP-62 NSCLC, in the assay on OVCAR-3 ovarian, with A549 NSCLC, with SK-MEL-28 melanoma, with CAKI-1 renal and with CCRF-CEM leukemia was greater than 100 µM throughout. In addition, the TGI in the assay on MALME-3M melanoma, in the assay on OVCAR-5 ovarian and with UO-31 renal was greater than 100 µM throughout.
In the case of `CC(C)C(NCc1c2ccccc2[n+](C)c2ccccc12)C(=O)O` (stereo not given), the TGI in the assay with HOP-62 NSCLC came to 19.7 µM; in the assay on OVCAR-3 ovarian, 16.9 µM; in the assay on A549 NSCLC, 29.9 µM; in the assay on SK-MEL-28 melanoma, 26.8 µM; with CAKI-1 renal it was 12.1 µM; with MALME-3M melanoma it was 19.1 µM. Besides, the TGI in the assay on OVCAR-5 ovarian was 33.2 µM; in the assay on UO-31 renal it was 21.7 µM; in the assay with SK-OV-3 ovarian, 31 µM.
On to `C[n+]1c2ccccc2n2c3ccccc3c(NCCCn3ccnc3)c(C#N)c21`, for which the TGI in the assay with HOP-62 NSCLC was greater than 27 µM; in the assay on OVCAR-3 ovarian it was greater than 25.2 µM; in the assay with A549 NSCLC, 32.2 µM; with SK-MEL-28 melanoma, 13.3 µM; in the assay on CAKI-1 renal, greater than 43.1 µM; in the assay with MALME-3M melanoma, 4.5 µM. For the same molecule, the TGI in the assay on OVCAR-5 ovarian was determined as 18.7 µM; with UO-31 renal, 42.6 µM; in the assay with SK-OV-3 ovarian, 38.8 µM.
In the case of `Cc1nnc(SCc2nc(C#N)c(C#N)nc2CSc2nnc(C)s2)s1`, the TGI in the assay on HOP-62 NSCLC is 37.8 µM; in the assay on OVCAR-3 ovarian, 20.7 µM; with A549 NSCLC it was greater than 100 µM; with SK-MEL-28 melanoma, greater than 90.8 µM; with CAKI-1 renal, 11.6 µM; in the assay with MALME-3M melanoma, 13 µM. Besides, the TGI was 34.5 µM in the assay on OVCAR-5 ovarian, 24.1 µM with UO-31 renal and greater than 75.9 µM in the assay with SK-OV-3 ovarian.
On to `CC1=NC(=N)N=C(C)C1N=Nc1ccc2nc(C)[nH]c2c1` (stereo not given), for which the TGI with HOP-62 NSCLC, in the assay on OVCAR-3 ovarian, in the assay on A549 NSCLC, in the assay on SK-MEL-28 melanoma, in the assay with CAKI-1 renal and with CCRF-CEM leukemia was greater than 100 µM throughout. In addition, the TGI in the assay on MALME-3M melanoma, in the assay with OVCAR-5 ovarian and with SK-OV-3 ovarian was greater than 100 µM in each case.
In the case of `O=S(Nc1ccccc1)c1ccc(Cl)cc1` (stereo not given), the TGI in the assay on HOP-62 NSCLC, in the assay with OVCAR-3 ovarian, in the assay with A549 NSCLC, in the assay on SK-MEL-28 melanoma, with CAKI-1 renal and in the assay on CCRF-CEM leukemia was greater than 100 µM each time. Also, the TGI with MALME-3M melanoma, with OVCAR-5 ovarian and in the assay with UO-31 renal was greater than 100 µM each time.
